# Molecular target: T1, full length active recombinant SYK enzyme (Homo sapiens, UniProt P43405)
# T1 construct: full length active recombinant SYK enzyme (Millipore, Calif.); purchased Millipore
# Experiment: Inhibition of Syk tyrosine phosphorylation activity (LANCE TR-FRET kinase assay)
# Assay type: biochemical
row,Structure (SMILES),IC50 [µM]
1,"Cn1ccc2c(Nc3nc(N[C@@H]4CCCC[C@@H]4N)ccc3C(N)=O)cccc21 [Example 396, 6-((1R,2S)-2-aminocyclohexylamino)-2-(1-methyl-1H-indol-4-ylamino)nicotinamide]",0.001 to 0.01
2,"Cn1ccc2cc(Nc3nc(N[C@@H]4CCCC[C@@H]4N)ccc3C(N)=O)ccc21 [Example 397, 6-((1R,2S)-2-aminocyclohexylamino)-2-(1-methyl-1H-indol-5-ylamino)nicotinamide]",0.001 to 0.01
3,"Cn1ncc2c(Nc3nc(N[C@@H]4CCCC[C@@H]4N)ccc3C(N)=O)cccc21 [Example 398, 6-((1R,2S)-2-aminocyclohexylamino)-2-(1-methyl-1H-indazol-4-ylamino)nicotinamide]",0.001 to 0.01
4,"Cn1ncc2cc(Nc3nc(N[C@@H]4CCCC[C@@H]4N)ccc3C(N)=O)ccc21 [Example 399, 6-((1R,2S)-2-aminocyclohexylamino)-2-(1-methyl-1H-indazol-5-ylamino)nicotinamide]",0.001 to 0.01
5,"NC(=O)c1ccc(N[C@@H]2CCCC[C@@H]2N)nc1Nc1ccc2scnc2c1 [Example 400, 6-((1R,2S)-2-aminocyclohexylamino)-2-(benzo[d]thiazol-5-ylamino)nicotinamide]",0.001 to 0.01
6,"NC(=O)c1ccc(N[C@@H]2CCCC[C@@H]2N)nc1Nc1cccc2ncsc12 [Example 401, 6-((1R,2S)-2-aminocyclohexylamino)-2-(benzo[d]thiazol-7-ylamino)nicotinamide]",0.001 to 0.01
7,"NC(=O)c1ccc(N[C@@H]2CCCC[C@@H]2N)nc1Nc1csc2ncccc12 [Example 402, 6-((1R,2S)-2-aminocyclohexylamino)-2-(thieno[2,3-b]pyridin-3-ylamino)nicotinamide]",< 0.001
8,"NC(=O)c1ccc(N[C@@H]2CCCC[C@@H]2N)nc1Nc1ccc2ncsc2c1 [Example 403, 6-((1R,2S)-2-aminocyclohexylamino)-2-(benzo[d]thiazol-6-ylamino)nicotinamide]",0.001 to 0.01
9,"NC(=O)c1ccc(N[C@@H]2CCCC[C@@H]2N)nc1Nc1ccc2nc(O)sc2c1 [Example 404, 6-((1R,2S)-2-aminocyclohexylamino)-2-(2-hydroxybenzo[d]thiazol-6-ylamino)nicotinamide]",0.001 to 0.01
10,"NC(=O)c1ccc(N[C@@H]2CCCC[C@@H]2N)nc1Nc1cnc2ccncc2c1 [Example 406, 2-(1,6-naphthyridin-3-ylamino)-6-((1R,2S)-2-aminocyclohexylamino)nicotinamide]",0.01 to 0.1
11,NC(=O)c1ccc(N[C@@H]2CCCC[C@@H]2N)nc1Nc1cnc2cc[nH]c2c1 [Example 407],0.01 to 0.1
12,NC(=O)c1cnc(N[C@@H]2CCCC[C@@H]2N)cc1Nc1csc2ncccc12 [Example 422],> 1
13,"CC[C@@H](Nc1nc(Nc2csc3ncccc23)c(C(N)=O)cc1F)C(N)=O [Example 423, (R)-6-(1-amino-1-oxobutan-2-ylamino)-5-fluoro-2-(thieno[2,3-b]pyridin-3-ylamino)nicotinamide]",0.01 to 0.1
14,"CC[C@@H](Nc1ccc(C(N)=O)c(Nc2csc3ncccc23)n1)C(N)=O [Example 425, (R)-6-(1-amino-1-oxobutan-2-ylamino)-2-(thieno[2,3-b]pyridin-3-ylamino)nicotinamide]",0.01 to 0.1

# More lines, now with the values ahead:
row,IC50 [µM],Structure (SMILES)
1,> 1,"CN1C(=O)Cc2c(Nc3nc(N[C@@H]4CCCC(F)(F)[C@@H]4N)c(F)cc3C(N)=O)cccc21 [Example 395, 6-((1R,2R)-2-amino-3,3-difluorocyclohexylamino)-5-fluoro-2-(1-methyl-2-oxoindolin-4-ylamino)nicotinamide]"
2,0.01 to 0.1,"NC(=O)c1cc(F)c(N[C@@H]2CCCC(F)(F)[C@@H]2N)nc1Nc1csc2ncccc12 [Example 405, 6-((1R,2R)-2-amino-3,3-difluorocyclohexylamino)-5-fluoro-2-(thieno[2,3-b]pyridin-3-ylamino)nicotinamide]"
3,0.1 to 1,"NC(=O)c1cc(F)c(N[C@@H]2CCCC[C@@H]2N)nc1Nc1cc(F)c[n+]([O-])c1 [Example 408, 3-(6-((1R,2S)-2-aminocyclohexylamino)-3-carbamoyl-5-fluoropyridin-2-ylamino)-5-fluoropyridine 1-oxide]"
4,0.001 to 0.01,"NC(=O)c1ccc(N[C@@H]2CCCC[C@@H]2N)nc1Nc1cnn2ccccc12 [Example 419, 6-((1R,2S)-2-aminocyclohexylamino)-2-(pyrazolo[1,5-a]pyridin-3-ylamino)nicotinamide]"
5,0.01 to 0.1,"NC(=O)c1cc(F)c(N[C@@H]2CCCC(F)(F)[C@@H]2N)nc1Nc1cnn2ccccc12 [Example 420, 6-((1R,2R)-2-amino-3,3-difluorocyclohexylamino)-5-fluoro-2-(pyrazolo[1,5-a]pyridin-3-ylamino)nicotinamide]"
6,> 1,"NC(=O)c1cnc(N[C@@H]2CCCC[C@@H]2N)cc1Nc1cnn2ccccc12 [Example 421, 6-((1R,2S)-2-aminocyclohexylamino)-4-(pyrazolo[1,5-a]pyridin-3-ylamino)nicotinamide]"
7,0.01 to 0.1,"CC[C@@H](Nc1nc(Nc2cnn3ccccc23)c(C(N)=O)cc1F)C(N)=O [Example 424, (R)-6-(1-amino-1-oxobutan-2-ylamino)-5-fluoro-2-(pyrazolo[1,5-a]pyridin-3-ylamino)nicotinamide]"
